The subject of the test is host cells. In words: Inhibition of host cells by myrcene during fermentation. The class given is cell-based. The following applies: host cells in fermentation; read-out: IC50 (inhibitory to host cells).

In brackets after ≈: the same amount, converted by molar mass.

What is called IC50 is the concentration needed to halve the response being measured. As to `C=CC(=C)CCC=C(C)C` [Myrcene, myrcene], the IC50 is 50 to 100 µg/mL (≈ 367 to 734 µM).

For the origin of these results see patent publication US20260071239A1, “COMPOSITIONS AND METHODS FOR IMPROVED CELL CULTURE EFFICIENCY” (Amyris, Inc., priority 2022, published 2026).
